The structures appear in SMILES notation.

Data set [1] relates to methicillin resistant Staphylococcus aureus (MRSA). Kind of data set: standard microtiter broth serial dilution test, MRSA strains. As to conditions: 23 strains of MRSA; approximately 10^5 colony forming units, 35° for 18 hours. The data set is classed as cell-based. The procedure: (§1) The antibacterial activity of the compounds of the invention may be readily determined using conventional test procedures. For example the antibacterial activity of the compounds of the invention was determined using a standard mictoriter broth serial dilution test. In this test the broth was incubated with approximately 10^5 colony forming units of the test organism and incubated at 35° for 18 hours in the presence of test compound.
(§2) In this list the compounds of the invention were tested using this procedure against 23 strains of MRSA and 10 strains of MRSE and the resultant minimum inhibitory concentrations (MIC90) in mg/litre determined.

Data set [2] has as its system methicillin resistant Staphylococcus epidermidis (MRSE). The data set is described as follows: standard microtiter broth serial dilution test, MRSE strains. As to conditions: 10 strains of MRSE; approximately 10^5 colony forming units, 35° for 18 hours. The data set is classed as cell-based. The procedure:
as §1, §2

Data set [3] is described as follows: toxicity on administration to rats. As to conditions: doses up to 1000 mg/kg. The data set is classed as in vivo. The source says: Compounds of the invention are in general non-toxic and therapeutically effective doses.

`C[C@@H](O)[C@H]1C(=O)N2C(C(=O)[O-])=C3/C(=C/c4cccc(-c5ccncc5)c4)CCC[C@@H]3[C@H]12.[Na+]` [Example 8, Sodium (8S,9R,10S,12R)-1-aza-10-(1-Hydroxyethyl)-11-oxo-4-[(E)-(3-(4′-pyridyl)phenyl)methylene]-tricyclo-[7,2,0,0^3.8]-undec-2-ene-2-carboxylate]: the “MRSA MIC90” value in data set [1] turned out to be 2 µg/mL. For the same molecule, the “MRSE MIC90” value in data set [2] amounted to 2 µg/mL.
Take `C[C@@H](O)[C@H]1C(=O)N2C(C(=O)[O-])=C3/C(=C/c4cc(-c5cc[n+](CC(N)=O)cc5)cs4)CCC[C@@H]3[C@H]12` [Example 18, (8S,9R,10S,12R)-1-aza-10-(1-Hydroxyethyl)-11-oxo-4-[(E)-(4-(1′-(carbamoylmethyl)pyridinium-4-′-yl)thiophen-2-yl)methylene]-tricyclo-[7,2,0,0^3.8]-undec-2-ene-2-carboxylate]: in data set [1], the “MRSA MIC90” value was found to be 4 µg/mL. In data set [2], the “MRSE MIC90” value turned out to be 2 µg/mL.
In the case of `C[C@@H](O)[C@H]1C(=O)N2C(C(=O)[O-])=C3/C(=C/c4cc5ccccc5o4)CCC[C@@H]3[C@H]12.[Na+]` [Example 11], the “MRSA MIC90” value in data set [1] worked out at 4 µg/mL. Also, in data set [2], the “MRSE MIC90” value is 2 µg/mL.
With `C[C@@H](O)[C@H]1C(=O)N2C(C(=O)[O-])=C3/C(=C/c4ccnc(Cl)c4)CCC[C@@H]3[C@H]12.[Na+]` [Example 12], the “MRSA MIC90” value in data set [1] came to 4 µg/mL. In addition, the “MRSE MIC90” value in data set [2] was 2 µg/mL.
`C[C@@H](O)[C@H]1C(=O)N2C(C(=O)[O-])=C3/C(=C/c4ccncc4)CCC[C@@H]3[C@H]12.[Na+]` [Example 5, Sodium (8S,9R,10S,12R)-1-aza-10-(1-Hydroxyethyl)-11-oxo-4-[(E)-(pyrid-4-yl)methylene]-tricyclo-[7,2,0,0^3.8]-undec-2-ene-2-carboxylate]: the “MRSA MIC90” value in data set [1] came to 4 µg/mL. Also, the “MRSE MIC90” value in data set [2] amounted to 2 µg/mL. Moreover, the untoward effects result in data set [3] is on record as “no untoward effects”.
With `C[C@@H](O)[C@H]1C(=O)N2C(C(=O)[O-])=C3/C(=C/c4ccc([N+](=O)[O-])cc4)CCC[C@@H]3[C@H]12.[Na+]` [Example 6, Sodium (8S,9R,10S,12R)-1-aza-10-(1-Hydroxyethyl)-11-oxo-4-[(E)-(4-nitrophenyl)methylene]-tricyclo-[7,2,0,0^3.8]-undec-2-ene-2-carboxylate], in data set [1], the “MRSA MIC90” value turned out to be 2 µg/mL. The “MRSE MIC90” value in data set [2] stood at 2 µg/mL.
As to `Cc1cc(/C=C2\CCC[C@H]3C2=C(C(=O)[O-])N2C(=O)[C@H]([C@@H](C)O)[C@@H]32)ccn1.[Na+]` [Example 10, Sodium (8S,9R,10S,12R)-1-aza-10-(1-Hydroxyethyl)-11-oxo-4-[(E)-(2-methylpyridin-4-yl)methylene]-tricyclo-[7,2,0,0^3.8]-undec-2-ene-2-carboxylate], the “MRSA MIC90” value in data set [1] amounted to 8 µg/mL. In data set [2], the “MRSE MIC90” value was 4 µg/mL.
Taken in the same sequence, the figures for `C[C@@H](O)[C@H]1C(=O)N2C(C(=O)[O-])=C3/C(=C/c4ccccc4)CCC[C@@H]3[C@H]12.[Na+]` [Example 1, Sodium (8S,9R,10S,12R)-1-aza-10-(1-Hydroxyethyl)-11-oxo-4-[(E)-phenylmethylene]-tricyclo-[7,2,0,0^3.8]-undec-2-ene-2-carboxylate] were 8 µg/mL and 4 µg/mL.
For `C[C@@H](O)[C@H]1C(=O)N2C(C(=O)[O-])=C3/C(=C/c4cc5cnccc5o4)CCC[C@@H]3[C@H]12.[Na+]` [Example 13] the same measures were 4 µg/mL and 4 µg/mL.
Turning to `C[C@@H](O)[C@H]1C(=O)N2C(C(=O)[O-])=C3/C(=C/c4csc5ccccc45)CCC[C@@H]3[C@H]12.[Na+]` [Example 17, Sodium (8S,9R,10S,12R)-1-aza-10-(1-Hydroxyethyl)-11-oxo-4-[(E-)(benzothiophen-3-yl)methylene]-tricyclo-[7,2,0,0^3.8]-undec-2-ene-2-carboxylate], the “MRSA MIC90” value in data set [1] came to 4 µg/mL. Also, the “MRSE MIC90” value in data set [2] came out at 2 µg/mL.
Turning to `Cc1cc(/C=C2\CCC[C@H]3C2=C(C(=O)[O-])N2C(=O)[C@H]([C@@H](C)O)[C@@H]32)cc(C)n1.[Na+]` [Example 9, Sodium (8S,9R,10S,12R)-1-aza-10-(1-Hydroxyethyl)-11-oxo-4-[(E)-(2,6-dimethylpyridin-4-yl)methylene]-tricyclo-[7,2,0,0^3.8]-undec-2-ene-2-carboxylate], the “MRSA MIC90” value in data set [1] was found to be 8 µg/mL. The “MRSE MIC90” value in data set [2] amounted to 4 µg/mL.
Take `C[C@@H](O)[C@H]1C(=O)N2C(C(=O)[O-])=C3/C(=C/c4ccc(Cl)c([N+](=O)[O-])c4)CCC[C@@H]3[C@H]12.[Na+]` [Example 15, Sodium (8S,9R,10S,12R)-1-aza-10-(1-Hydroxyethyl)-11-oxo-4-[(E)-(4-chloro-3-nitro-phenyl)methylene]-tricyclo-[7,2,0,0^3.8]-undec-2-ene-2-carboxylate]: the “MRSA MIC90” value in data set [1] turned out to be 4 µg/mL. In addition, the “MRSE MIC90” value in data set [2] is 2 µg/mL.
`C[C@@H](O)[C@H]1C(=O)N2C(C(=O)[O-])=C3/C(=C/c4ccnc(N)c4)CCC[C@@H]3[C@H]12.[Na+]` [Example 14, Sodium (8S,9R,10S,12R)-1-aza-10-(1-Hydroxyethyl)-11-oxo-4-[(E)-(2-aminopyrid-4-yl)methylene]-tricyclo-[7,2,0,0^3.8]-undec-2-ene-2-carboxylate]: the “MRSA MIC90” value in data set [1] was 8 µg/mL. For the same molecule, in data set [2], the “MRSE MIC90” value is 4 µg/mL.
With `C[C@@H](O)[C@H]1C(=O)N2C(C(=O)[O-])=C3/C(=C/c4nc(-c5ccncc5)cs4)CCC[C@@H]3[C@H]12.[Na+]` [Example 3, Sodium (8S,9R,10S,12R)-1-aza-10-(1-Hydroxyethyl)-11-oxo-4-[(E)-(4-(4′-pyridyl)thiazol-2-yl)methylene]-tricyclo-[7,2,0,0^3.8]-undec-2-ene-2-carboxylate], the “MRSA MIC90” value in data set [1] is 4 µg/mL. In data set [2], the “MRSE MIC90” value came out at 2 µg/mL.
For `C[C@@H](O)[C@H]1C(=O)N2C(C(=O)[O-])=C3/C(=C/c4cc5ccccc5s4)CCC[C@@H]3[C@H]12.[Na+]` [Example 16, Sodium (8S,9R,10S,12R)-1-aza-10-(1-Hydroxyethyl)-11-oxo-4-[(E)-(benzothiophen-2-yl)methylene]-tricyclo-[7,2,0,0^3.8]-undec-2-ene-2-carboxylate] the same measures were 2 µg/mL and 1 µg/mL.
For `C[C@@H](O)[C@H]1C(=O)N2C(C(=O)[O-])=C3/C(=C/c4nc(-c5ccccc5)cs4)CCC[C@@H]3[C@H]12.[Na+]` [Example 7, Sodium (8S,9R,10S,12R)-1-aza-10-(1-Hydroxyethyl)-11-oxo-4-[(E)-(4-phenylthiazol-2-yl)methylene]-tricyclo-[7,2,0,0^3.8]-undec-2-ene-2-carboxylate], the “MRSA MIC90” value in data set [1] turned out to be 4 µg/mL. Besides, the “MRSE MIC90” value in data set [2] turned out to be 2 µg/mL.
